Data taken from ChEMBL document CHEMBL3351560, “Pyrazolone-quinazolone hybrids: a novel class of human 4-hydroxyphenylpyruvate dioxygenase inhibitors” (Bioorg Med Chem, 2014).
pKi: −log10 of the molar value.

Molecular target: T1, 4-hydroxyphenylpyruvate dioxygenase (Homo sapiens, UniProt P32754)
Test: Inhibition of purified His6-tagged recombinant human HPPD assessed as inhibition of maleylacetoacetate formation after 30 mins by UV/visible spectrophotometry
Target sequence in this assay (P32754 whole entry): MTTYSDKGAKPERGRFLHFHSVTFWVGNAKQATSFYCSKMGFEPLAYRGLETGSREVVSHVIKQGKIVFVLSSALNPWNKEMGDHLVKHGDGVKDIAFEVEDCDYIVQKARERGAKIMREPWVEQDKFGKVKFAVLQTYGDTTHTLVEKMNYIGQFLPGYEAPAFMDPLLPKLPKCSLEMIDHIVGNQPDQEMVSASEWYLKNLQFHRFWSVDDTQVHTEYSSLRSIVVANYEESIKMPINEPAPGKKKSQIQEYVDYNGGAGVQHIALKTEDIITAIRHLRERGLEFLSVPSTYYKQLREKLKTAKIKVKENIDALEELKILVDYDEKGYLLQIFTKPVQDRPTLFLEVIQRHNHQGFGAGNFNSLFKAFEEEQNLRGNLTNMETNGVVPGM

SMILES	pKi
Cc1nc2ccc(C(=O)c3cnn(C)c3O)cc2c(=O)n1-c1ccc(F)cc1	7.47
Cc1cc(Cl)ccc1-n1c(C)nc2ccc(C(=O)c3c(C)nn(C)c3O)cc2c1=O	6.75
Cc1ccc(-n2c(C)nc3ccc(C(=O)c4cnn(C)c4O)cc3c2=O)c(F)c1	6.77
Cc1nc2ccc(C(=O)c3cnn(C)c3O)cc2c(=O)n1-c1ccc(Cl)c(Cl)c1	7.60
Cc1ccc(-n2c(C)nc3ccc(C(=O)c4c(C)nn(C)c4O)cc3c2=O)cc1	6.81
Cc1cccc(-n2c(C)nc3ccc(C(=O)c4c(C)nn(C)c4O)cc3c2=O)c1	7.13
Cc1nc2ccc(C(=O)c3cnn(C)c3O)cc2c(=O)n1-c1cccc(Br)c1	7.85
Cc1nn(C)c(O)c1C(=O)c1ccc2nc(C)n(-c3cccc(Cl)c3)c(=O)c2c1	6.76
Cc1nc2ccc(C(=O)c3cnn(C)c3O)cc2c(=O)n1-c1ccc(OC(F)(F)F)cc1	6.80
Cc1nn(C)c(O)c1C(=O)c1ccc2nc(C)n(-c3ccc(Cl)cc3)c(=O)c2c1	6.63
Cc1ccc(-n2c(C)nc3ccc(C(=O)c4cnn(C)c4O)cc3c2=O)cc1	7.60
Cc1nc2ccc(C(=O)c3cnn(C)c3O)cc2c(=O)n1-c1cccc(Cl)c1	8.00
Cc1ccc(-n2c(C)nc3ccc(C(=O)c4cnn(C)c4O)cc3c2=O)c(Cl)c1	7.05
Cc1nn(C)c(O)c1C(=O)c1ccc2nc(C)n(-c3ccc(F)cc3)c(=O)c2c1	6.61
Cc1ccccc1-n1c(C)nc2ccc(C(=O)c3c(C)nn(C)c3O)cc2c1=O	6.61
Cc1nc2ccc(C(=O)c3cnn(C)c3O)cc2c(=O)n1-c1ccccc1	7.72
Cc1nn(C)c(O)c1C(=O)c1ccc2nc(C)n(-c3cccc(F)c3)c(=O)c2c1	7.05
Cc1nn(C)c(O)c1C(=O)c1ccc2nc(C)n(-c3ccccc3Cl)c(=O)c2c1	7.07
COc1ccc(-n2c(C)nc3ccc(C(=O)c4cnn(C)c4O)cc3c2=O)cc1	7.22
Cc1nc2ccc(C(=O)c3cnn(C)c3O)cc2c(=O)n1-c1ccccc1Br	7.62
Cc1ccc(-n2c(C)nc3ccc(C(=O)c4c(C)nn(C)c4O)cc3c2=O)c(F)c1	7.09
Cc1ccc(-n2c(C)nc3ccc(C(=O)c4c(C)nn(C)c4O)cc3c2=O)c(Br)c1	7.06

SMILES	pKi
Cc1ccc(-n2c(C)nc3ccc(C(=O)c4c(C)nn(C)c4O)cc3c2=O)c(Cl)c1	6.96
Cc1cccc(-n2c(C)nc3ccc(C(=O)c4cnn(C)c4O)cc3c2=O)c1	7.89
Cc1nn(C)c(O)c1C(=O)c1ccc2nc(C)n(-c3ccc(Br)cc3)c(=O)c2c1	6.89
Cc1nc2ccc(C(=O)c3cnn(C)c3O)cc2c(=O)n1-c1cccc(F)c1	7.70
Cc1ccccc1-n1c(C)nc2ccc(C(=O)c3cnn(C)c3O)cc2c1=O	7.24
COc1ccccc1-n1c(C)nc2ccc(C(=O)c3cnn(C)c3O)cc2c1=O	7.42
Cc1cc(Cl)ccc1-n1c(C)nc2ccc(C(=O)c3cnn(C)c3O)cc2c1=O	7.49
Cc1ccc(-n2c(C)nc3ccc(C(=O)c4cnn(C)c4O)cc3c2=O)c(Br)c1	7.96
Cc1cc(F)ccc1-n1c(C)nc2ccc(C(=O)c3cnn(C)c3O)cc2c1=O	7.40
COc1ccc(-n2c(C)nc3ccc(C(=O)c4c(C)nn(C)c4O)cc3c2=O)cc1	6.62
Cc1cc(F)ccc1-n1c(C)nc2ccc(C(=O)c3c(C)nn(C)c3O)cc2c1=O	6.66
COc1ccccc1-n1c(C)nc2ccc(C(=O)c3c(C)nn(C)c3O)cc2c1=O	6.68
COc1cccc(-n2c(C)nc3ccc(C(=O)c4cnn(C)c4O)cc3c2=O)c1	7.47
Cc1nc2ccc(C(=O)c3cnn(C)c3O)cc2c(=O)n1-c1ccccc1Cl	7.66
Cc1nn(C)c(O)c1C(=O)c1ccc2nc(C)n(-c3ccccc3F)c(=O)c2c1	7.10
Cc1nc2ccc(C(=O)c3cnn(C)c3O)cc2c(=O)n1-c1ccc(Cl)cc1	7.66
Cc1nc2ccc(C(=O)c3cnn(C)c3O)cc2c(=O)n1-c1ccccc1F	7.82
Cc1nn(C)c(O)c1C(=O)c1ccc2nc(C)n(-c3cccc(Br)c3)c(=O)c2c1	7.03
Cc1nc2ccc(C(=O)c3cnn(C)c3O)cc2c(=O)n1-c1ccc(Br)cc1	7.74
Cc1ccc(-n2c(C)nc3ccc(C(=O)c4c(C)nn(C)c4O)cc3c2=O)c(C)c1	6.79
Cc1ccc(-n2c(C)nc3ccc(C(=O)c4cnn(C)c4O)cc3c2=O)c(C)c1	7.23
Cc1nc2ccc(C(=O)c3cnn(C)c3O)cc2c(=O)n1-c1cccc(OC(F)(F)F)c1	7.51

Molecular target: T1, 4-hydroxyphenylpyruvate dioxygenase
Test: Ratio of Nitisinone Ki to compound Ki for purified His6-tagged recombinant human HPPD assessed as inhibition of maleylacetoacetate formation after 30 mins by UV/visible spectrophotometry
Target sequence in this assay (P32754 2-393 limits assumed): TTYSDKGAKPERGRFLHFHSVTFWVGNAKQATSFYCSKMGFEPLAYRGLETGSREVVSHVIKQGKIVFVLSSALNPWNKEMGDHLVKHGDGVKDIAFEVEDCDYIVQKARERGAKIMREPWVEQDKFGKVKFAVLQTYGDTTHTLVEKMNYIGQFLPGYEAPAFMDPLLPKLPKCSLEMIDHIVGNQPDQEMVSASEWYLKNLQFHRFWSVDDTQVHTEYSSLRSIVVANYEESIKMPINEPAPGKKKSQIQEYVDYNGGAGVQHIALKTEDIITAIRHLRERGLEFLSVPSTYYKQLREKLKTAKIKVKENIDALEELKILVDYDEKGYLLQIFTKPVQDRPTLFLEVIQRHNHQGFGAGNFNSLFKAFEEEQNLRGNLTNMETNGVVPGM

SMILES	Ratio Ki
Cc1nc2ccc(C(=O)c3cnn(C)c3O)cc2c(=O)n1-c1cccc(Cl)c1	3
Cc1ccc(-n2c(C)nc3ccc(C(=O)c4cnn(C)c4O)cc3c2=O)c(Br)c1	3
